In paper PMC6585621 (Clinical Pharmacology and Therapeutics, 2018):
Where two headings read alike, the source gives them in different places. Blank lines part the entries; values can stand above or below the molecule they belong to.

Legend:
[1] = tested on: carboxylesterase 1 (CES1); conditions: cited from earlier work
[2] = Pharmacokinetics of clopidogrel and its metabolites with and without ritonavir; format: in vivo, human; conditions: for AUC / half-life / C max / AUC0‐4h / AUC0‐∞ / t ½ / t max: after clopidogrel 300 mg oral; for AUC / half-life / C max / AUC0‐4h / AUC0‐∞ / t ½ / Clopidogrel active metabolite: clopidogrel AUC0‐∞ ratio: geometric mean (geometric CV); for half-life: t ½; for t max: median (range)
[3] = tested on: platelet aggregation; conditions: clopidogrel 300 mg, arithmetic mean (SD)
[4] = format: in vivo, human; conditions: for t max / M1:dasabuvir AUC0‐23h ratio / M1:dasabuvir AUC0‐∞ ratio / t ½: after dasabuvir 250 mg oral; for t max: median (range); for M1:dasabuvir AUC0‐23h ratio / M1:dasabuvir AUC0‐∞ ratio / t ½: geometric mean (geometric CV); for effect of ritonavir on pharmacokinetics compared to pretreatment with placebo: ritonavir 100 mg twice daily
[5] = cited from earlier work
[6] = Pharmacokinetics of ritonavir with and without clopidogrel; format: in vivo, human
[7] = in humans; cited from earlier work
[8] = cited from earlier work; remark: listed apart in the source
[9] = cited from earlier work; remark: listed apart in the source
[10] = tested on: CYP3A4; conditions: in the absence of ritonavir; cited from earlier work
[11] = clopidogrel and ritonavir phase
[12] = clopidogrel and ritonavir phase (ritonavir 100 mg twice daily)

AUC0‐4h, clopidogrel and ritonavir phase to clopidogrel phase ratio ([2]; geometric mean ratio (90% CI)): 0.75 (0.40–1.44)
AUC0‐∞, clopidogrel and ritonavir phase to clopidogrel phase ratio ([2]; geometric mean ratio (90% CI)): 0.75 (0.39–1.43)
C max, clopidogrel and ritonavir phase to clopidogrel phase ratio ([2]; geometric mean ratio (90% CI)): 0.79 (0.40–1.57)
t ½, clopidogrel and ritonavir phase to clopidogrel phase ratio ([2]; geometric mean ratio (90% CI)): 0.89 (0.72–1.11)
Cmax ([2]; human, plasma, po, 300 mg): 4.49 ng/mL
AUC ([2]; human, plasma, po, 300 mg, AUC0‐4h, clopidogrel and ritonavir phase): 6.44 ng·h/mL
AUC ([2]; human, plasma, po, 300 mg, AUC0‐4h, clopidogrel phase): 8.53 ng·h/mL
AUC ([2]; human, plasma, po, 300 mg, AUC0‐∞, clopidogrel and ritonavir phase): 8.14 ng·h/mL
AUC ([2]; human, plasma, po, 300 mg, AUC0‐∞, clopidogrel phase): 10.8 ng·h/mL
half-life ([2]; human, plasma, po, 300 mg, clopidogrel and ritonavir phase): 1.77 h
half-life ([2]; human, plasma, po, 300 mg, clopidogrel phase): 1.98 h
Compound: COC(=O)[C@H](c1ccccc1Cl)N1CCc2sccc2C1 [Clopidogrel, clopidogrel, reference compound]
fraction hydrolyzed by CES1 to inactive carboxylic acid metabolite [1]: About 90%
Inhibition of platelet aggregation, average inhibition at 0‐24 h [3, 11]: 31 (28) %
Inhibition of platelet aggregation, maximal inhibition [3, 11]: 40 (29) %
Inhibition of platelet aggregation, average inhibition at 0‐24 h ([3]; clopidogrel phase): 51 (24) %
Inhibition of platelet aggregation, maximal inhibition ([3]; clopidogrel phase): 60 (23) %

t max [4, 11]: 4.0 (3.0–23) h
M1:dasabuvir AUC0‐23h ratio ([4]; clopidogrel phase): 0.0102 (42)
M1:dasabuvir AUC0‐∞ ratio ([4]; clopidogrel phase): 0.0135 (32)
t ½ ([4]; clopidogrel phase): 17.3 (23) h
t max ([4]; clopidogrel phase): 4.0 (3.0–23) h
M1:dasabuvir AUC0‐23h ratio ([4]; placebo phase): 0.0795 (28)
M1:dasabuvir AUC0‐∞ ratio ([4]; placebo phase): 0.0774 (29)
t ½ ([4]; placebo phase): 7.87 (32) h
t max ([4]; placebo phase): 4.0 (2.0–4.0) h
M1:dasabuvir AUC0‐23h ratio ([4]; ritonavir phase): 0.0888 (35)
M1:dasabuvir AUC0‐∞ ratio ([4]; ritonavir phase): 0.0786 (38)
t ½ ([4]; ritonavir phase): 7.35 (25) h
t max ([4]; ritonavir phase): 4.0 (3.0–6.0) h
AUC0‐23h in clopidogrel phase as % of that during placebo phase ([4]; geometric mean): 41%
AUC0‐23h in clopidogrel–ritonavir phase as % of that during the ritonavir phase ([4]; geometric mean): 48%
C max in clopidogrel phase as % of that in the placebo phase ([4]; geometric mean): 20%
C max in clopidogrel–ritonavir phase as % of that during the ritonavir phase ([4]; geometric mean): 22%
M1:dasabuvir AUC0‐∞ ratio in clopidogrel phase as % of that with placebo ([4]; geometric mean): 17%
AUC0‐23h, clopidogrel and ritonavir phase to ritonavir phase ratio ([4]; geometric mean ratio (90% CI)): 0.48 (0.32–0.71) P = 0.002
AUC0‐23h, clopidogrel phase to placebo phase ratio ([4]; geometric mean ratio (90% CI)): 0.41 (0.26–0.65) P = 0.001
C max, clopidogrel and ritonavir phase to ritonavir phase ratio ([4]; geometric mean ratio (90% CI)): 0.22 (0.13–0.36) P = 0.00002
C max, clopidogrel phase to placebo phase ratio ([4]; geometric mean ratio (90% CI)): 0.20 (0.11–0.36) P = 0.00006
M1:dasabuvir AUC0‐23h ratio, clopidogrel and ritonavir phase to ritonavir phase ratio ([4]; geometric mean ratio (90% CI)): 0.14 (0.12–0.17) P = 5·10^−11
M1:dasabuvir AUC0‐23h ratio, clopidogrel phase to placebo phase ratio ([4]; geometric mean ratio (90% CI)): 0.13 (0.11–0.15) P = 5·10^−12
M1:dasabuvir AUC0‐∞ ratio, clopidogrel and ritonavir phase to ritonavir phase ratio ([4]; geometric mean ratio (90% CI)): 0.20 (0.17–0.25) P = 5·10^−10
M1:dasabuvir AUC0‐∞ ratio, clopidogrel phase to placebo phase ratio ([4]; geometric mean ratio (90% CI)): 0.17 (0.16–0.19) P = 2·10^−14
t ½, clopidogrel and ritonavir phase to ritonavir phase ratio ([4]; geometric mean ratio (90% CI)): 1.92 (1.57–2.34) P = 0.00001
t ½, clopidogrel phase to placebo phase ratio ([4]; geometric mean ratio (90% CI)): 2.20 (1.72–2.81) P = 0.00001
effect of ritonavir on pharmacokinetics compared to pretreatment with placebo [4]: did not cause significant changes
Compound: COc1c(-c2ccc3cc(NS(C)(=O)=O)ccc3c2)cc(-n2ccc(=O)[nH]c2=O)cc1C(C)(C)CO [M1]

t max ([6]; clopidogrel and ritonavir phase, median (range)): 3.0 h
t ½ during coadministration of clopidogrel as % of that in the ritonavir phase ([6]; geometric mean): 112%
t max ([6]; human, plasma, oral): 1.75 h
Compound: CC(C)c1nc(CN(C)C(=O)N[C@H](C(=O)N[C@@H](Cc2ccccc2)C[C@H](O)[C@H](Cc2ccccc2)NC(=O)OCc2cncs2)C(C)C)cs1 [Ritonavir, ritonavir]

highest individual increase in AUC0‐∞, clopidogrel phase vs placebo phase ([4]; 12 subjects): > 10 fold
range of individual increases of AUC0‐∞ by clopidogrel compared with placebo ([4]; 12 subjects, clopidogrel phase vs placebo phase): 2.0–10.1 fold
t ½ ([4]; ritonavir phase): 8.22 (25) h
AUC0‐∞ in clopidogrel phase as % of that during placebo ([4]; geometric mean): 467%
AUC0‐∞ in clopidogrel–ritonavir phase as % of that during the ritonavir phase ([4]; geometric mean): 389%
C max in clopidogrel–ritonavir phase as % of that during the ritonavir phase ([4]; geometric mean): 182%
AUC0‐23h, clopidogrel and ritonavir phase to ritonavir phase ratio ([4]; geometric mean ratio (90% CI)): 3.13 (2.17–4.52) P = 0.00002
AUC0‐∞, clopidogrel phase to placebo phase ratio ([4]; geometric mean ratio (90% CI)): 4.67 (3.23–6.74) P = 8·10^−7
C max, clopidogrel and ritonavir phase to ritonavir phase ratio ([4]; geometric mean ratio (90% CI)): 1.82 (1.27–2.61) P = 0.004
C max, clopidogrel phase to placebo phase ratio ([4]; geometric mean ratio (90% CI)): 1.63 (1.03–2.57) P = 0.07
t ½, clopidogrel and ritonavir phase to ritonavir phase ratio ([4]; geometric mean ratio (90% CI)): 1.40 (1.14–1.73) P = 0.005
t ½, clopidogrel phase to placebo phase ratio ([4]; geometric mean ratio (90% CI)): 1.84 (1.59–2.13) P = 1·10^−6
contribution of CYP2C8 to metabolism ([4]; implied from clopidogrel interaction, both with and without ritonavir): exceed 80%
effect of ritonavir on pharmacokinetics compared to pretreatment with placebo [4]: did not cause significant changes
trend of lower concentrations in the ritonavir phase than in the placebo phase ([4]; statistically insignificant): –20%
Compound: COc1c(-c2ccc3cc(NS(C)(=O)=O)ccc3c2)cc(-n2ccc(=O)[nH]c2=O)cc1C(C)(C)C [Dasabuvir, dasabuvir, reference compound]
PBPK-predicted increase of AUC by clopidogrel [9]: 1.9–2.8 fold
implied reduction in clearance by clopidogrel (PBPK prediction) [9]: 47–64%
prolongation of half‐life (t ½) by concomitant gemfibrozil ([5]; humans): 18 fold
increase of AUC by concomitant gemfibrozil ([5]; humans, during ritonavir coadministration): 11 fold
fraction metabolized by CYP2C8 ([5]; in the presence of the CYP3A4 inhibitor ritonavir): > 0.9
share of overall metabolism for which CYP3A4 is responsible [10]: about 30%

The remaining lines, values behind:

Compound: CCOc1cc(CC(=O)N[C@@H](CC(C)C)c2ccccc2N2CCCCC2)ccc1C(=O)O [repaglinide]
increase of AUC of CYP2C8 substrate by gemfibrozil [5]: ~8 fold

Compound: O=C(O)[C@H]1O[C@@H](OC(=O)[C@H](c2ccccc2Cl)N2CCc3sccc3C2)[C@H](O)[C@@H](O)[C@@H]1O [Clopidogrel acyl‐β‐D‐glucuronide, clopidogrel acyl‐β‐D‐glucuronide]
C max [2, 12]: 1,610 (43) ng/mL
AUC0‐4h [2, 11]: 4,030 (45) ng·h/mL
AUC0‐∞ [2, 11]: 6,430 (46) ng·h/mL
t ½ [2, 11]: 2.02 (8.5) h
t max [2, 11]: 1.5 (1.5–3.0) h
AUC0‐4h ([2]; clopidogrel phase): 3,630 (56) ng·h/mL
AUC0‐∞ ([2]; clopidogrel phase): 6,840 (53) ng·h/mL
C max ([2]; clopidogrel phase): 1,420 (57) ng/mL
t ½ ([2]; clopidogrel phase): 2.83 (19) h
t max ([2]; clopidogrel phase): 1.75 (0.92–2.0) h
AUC0‐4h, clopidogrel and ritonavir phase to clopidogrel phase ratio ([2]; geometric mean ratio (90% CI)): 1.11 (0.86–1.43)
AUC0‐∞, clopidogrel and ritonavir phase to clopidogrel phase ratio ([2]; geometric mean ratio (90% CI)): 0.94 (0.71–1.23)
C max, clopidogrel and ritonavir phase to clopidogrel phase ratio ([2]; geometric mean ratio (90% CI)): 1.13 (0.86–1.47)
t ½, clopidogrel and ritonavir phase to clopidogrel phase ratio ([2]; geometric mean ratio (90% CI)): 0.71 (0.63–0.81); P = 0.0007

Compound: O=C(O)C[C@H](O)C[C@H](O)/C=C/c1c(C2CC2)nc2ccccc2c1-c1ccc(F)cc1 [pitavastatin]
effect of clopidogrel on pharmacokinetics [7]: not affected

Compound: CC(C)(O)c1ccccc1CC[C@@H](SCC1(CC(=O)O)CC1)c1cccc(/C=C/c2ccc3ccc(Cl)cc3n2)c1 [montelukast]
increase of AUC of CYP2C8 substrate by gemfibrozil [5]: ~4.5 fold

Compound: COC(=O)[C@H](c1ccccc1Cl)N1CC[C@@H](S)/C(=C\C(=O)O)C1 [Clopidogrel active metabolite]
decrease of AUC by ketoconazole [8]: 22–29%
C max [2, 12]: 6.77 (140) ng/mL
AUC0‐4h [2, 11]: 9.16 (150) ng·h/mL
AUC0‐∞ [2, 11]: 14.9 (170) ng·h/mL
t ½ [2, 11]: 0.89 (90) h
t max [2, 11]: 0.92 (0.92–1.5) h
AUC0‐4h ([2]; clopidogrel phase): 18.7 (77) ng·h/mL
AUC0‐∞ ([2]; clopidogrel phase): 19.3 (79) ng·h/mL
C max ([2]; clopidogrel phase): 13.0 (72) ng/mL
t ½ ([2]; clopidogrel phase): 1.05 (58) h
t max ([2]; clopidogrel phase): 0.92 (0.92–1.5) h
Clopidogrel active metabolite: clopidogrel AUC0‐∞ ratio [2, 11]: 1.83 (200)
Clopidogrel active metabolite: clopidogrel AUC0‐∞ ratio ([2]; clopidogrel phase): 1.79 (110)
AUC0‐4h in clopidogrel–ritonavir phase as % of that in the clopidogrel phase ([2]; geometric mean): 49%
C max in clopidogrel–ritonavir phase as % of that in the clopidogrel phase ([2]; geometric mean): 52%
AUC0‐4h, clopidogrel and ritonavir phase to clopidogrel phase ratio ([2]; geometric mean ratio (90% CI)): 0.49 (0.39–0.61); P = 0.0001
AUC0‐∞, clopidogrel and ritonavir phase to clopidogrel phase ratio ([2]; geometric mean ratio (90% CI)): 0.77 (0.59–1.00)
C max, clopidogrel and ritonavir phase to clopidogrel phase ratio ([2]; geometric mean ratio (90% CI)): 0.52 (0.41–0.65); P = 0.0003
Clopidogrel active metabolite: clopidogrel AUC0‐∞ ratio, clopidogrel and ritonavir phase to clopidogrel phase ratio ([2]; geometric mean ratio (90% CI)): 1.03 (0.53–1.97)
t ½, clopidogrel and ritonavir phase to clopidogrel phase ratio ([2]; geometric mean ratio (90% CI)): 0.85 (0.66–1.08)

Compound: CCc1ccc(CCOc2ccc(CC3SC(=O)NC3=O)cc2)nc1 (stereo not shown) [pioglitazone]
increase of AUC of CYP2C8 substrate by gemfibrozil [5]: about 3 fold

Compound: O=C(O)[C@H](c1ccccc1Cl)N1CCc2sccc2C1 [Clopidogrel carboxylic acid, clopidogrel carboxylic acid]
C max [2, 12]: 12,300 (34) ng/mL
AUC0‐4h [2, 11]: 27,800 (37) ng·h/mL
AUC0‐∞ [2, 11]: 41,600 (37) ng·h/mL
t ½ [2, 11]: 2.46 (12) h
t max [2, 11]: 0.92 (0.92–1.5) h
AUC0‐4h ([2]; clopidogrel phase): 26,800 (29) ng·h/mL
AUC0‐∞ ([2]; clopidogrel phase): 44,300 (26) ng·h/mL
C max ([2]; clopidogrel phase): 12,200 (22) ng/mL
t ½ ([2]; clopidogrel phase): 2.98 (21) h
t max ([2]; clopidogrel phase): 0.92 (0.92–1.5) h
AUC0‐4h, clopidogrel and ritonavir phase to clopidogrel phase ratio ([2]; geometric mean ratio (90% CI)): 1.04 (0.91–1.18)
AUC0‐∞, clopidogrel and ritonavir phase to clopidogrel phase ratio ([2]; geometric mean ratio (90% CI)): 0.94 (0.80–1.10)
C max, clopidogrel and ritonavir phase to clopidogrel phase ratio ([2]; geometric mean ratio (90% CI)): 1.01 (0.89–1.15)
t ½, clopidogrel and ritonavir phase to clopidogrel phase ratio ([2]; geometric mean ratio (90% CI)): 0.83 (0.72–0.95); P = 0.03
